Assay results taken from patent US20100267637A1, “TREATMENT OF MELANOMA WITH ALPHA THYMOSIN PEPTIDES IN COMBINATION WITH A KINASE INHIBITOR” (SciClone Pharmaceuticals, Inc., priority 2007, published 2010).

Assay: Treatment toxicity: body weight and drug-induced animal deaths in B16 melanoma-bearing mice
Assay type: in vivo, C57BL/6 mice
Procedure: The toxic effects of the dosing regimens were also monitored. […] Meanwhile 9H10 was given in two groups via i.p. on Day 3, 6 and 9. […] Tumor volume and body weight were measured every three days, and tumor weights were measured on Day 16 at the end of the study.
On Day 3, the animals were randomly assigned into nine different weight-matched and tumor-size-matched groups. Dosing was started on Day 3 using the regimen according to Table 2.
From Day 1 to Day 15, mortality and moribundity were checked twice daily, the body weights were recorded once every 3 days, and tumors were measured using a caliper once every 3 days. At the end of the study (Day 16), the animals were euthanized by CO2 asphyxiation, and the tumors were excised and weighed.
Toxicity of all treatment regimens was evaluated with the body weights of the study animals along with the drug-induced animal deaths. The inhibition of body weight was calculated using Excel according to the equation below:
PIBW(%)=100×(BW vehicle−BW drug treated)/BW vehicle
Inter-group comparison was performed in terms of tumor volume, tumor weight and body weight, using a student's t test. P values of less than 0.05 were considered to be statistically significant.

What does the source list for CNC(=O)c1cc(Oc2ccc(NC(=O)Nc3ccc(Cl)c(C(F)(F)F)c3)cc2)ccn1 [Sorafenib]?
Body Weight (g) (Mean ± SD) (Day 0 (tumor implantation, before dosing)): 21.02 ± 0.834 g; Percent inhibition of body weight vs vehicle (PIBW) (Day 0): −0.9121%; Percent inhibition of body weight vs vehicle (PIBW) (Day 3): 0.0000%; Body Weight (g) (Mean ± SD) (Day 6): 20.74 ± 1.023 g; Percent inhibition of body weight vs vehicle (PIBW) (Day 6): −1.6667%; Body Weight (g) (Mean ± SD) (Day 9): 19.75 ± 1.307 g; Body weights on Day 9 (Day 9, animal F1): 18.60 g; Body weights on Day 9 (Day 9, animal F2): 18.40 g; Body weights on Day 9 (Day 9, animal F3): 18.40 g; Body weights on Day 9 (Day 9, animal F4): 18.60 g; Body weights on Day 9 (Day 9, animal F5): 19.80 g; Body weights on Day 9 (Day 9, animal M1): 20.80 g; Body weights on Day 9 (Day 9, animal M2): 22.10 g; Body weights on Day 9 (Day 9, animal M3): 20.40 g; Body weights on Day 9 (Day 9, animal M4): 21.10 g; Body weights on Day 9 (Day 9, animal M5): 19.30 g; Percent inhibition of body weight vs vehicle (PIBW) (Day 9): 3.2337%; Body Weight (g) (Mean ± SD) (Day 12): 20.09 ± 1.534 g; Body weights on Day 12 (Day 12, animal F1): 19.00 g; Body weights on Day 12 (Day 12, animal F2): 17.20 g; Body weights on Day 12 (Day 12, animal F3): 20.80 g; Body weights on Day 12 (Day 12, animal F4): 18.30 g; Body weights on Day 12 (Day 12, animal F5): 20.30 g; Body weights on Day 12 (Day 12, animal M1): 22.10 g; Body weights on Day 12 (Day 12, animal M2): 21.40 g; Body weights on Day 12 (Day 12, animal M3): 20.40 g; Body weights on Day 12 (Day 12, animal M4): 21.50 g; Body weights on Day 12 (Day 12, animal M5): 19.90 g; Percent inhibition of body weight vs vehicle (PIBW) (Day 12): 8.2229%; Percent inhibition of body weight vs vehicle (PIBW) (Day 12, listed as Sorafenib alone): 8.22%; Body Weight (g) (Mean ± SD) (Day 15): 21.41 ± 1.919 g; Body weights on Day 15 (Day 15, animal F1): 20.70 g; Body weights on Day 15 (Day 15, animal F2): 17.50 g; Body weights on Day 15 (Day 15, animal F3): 21.10 g; Body weights on Day 15 (Day 15, animal F4): 19.90 g; Body weights on Day 15 (Day 15, animal F5): 21.50 g; Body weights on Day 15 (Day 15, animal M1): 23.90 g; Body weights on Day 15 (Day 15, animal M2): 23.80 g; Body weights on Day 15 (Day 15, animal M3): 22.20 g; Body weights on Day 15 (Day 15, animal M4): 22.80 g; Body weights on Day 15 (Day 15, animal M5): 20.70 g; Percent inhibition of body weight vs vehicle (PIBW) (Day 15): 3.2972%
